Experimental data reported in the NIST ThermoML archive (doi:10.1021/je201334p).

How the values were obtained:
[1] = refractive index (Na D-line) (dimensionless); xn = mol fraction of the nth substance listed; details: 101 kPa, Liquid, Standard Abbe refractometry
[2] = xn = mol fraction of the nth substance listed; details: 101 kPa, Liquid; for speed of sound: Sing-around technique in a fixed-path interferometer; for mass density: Vibrating tube method

CCCC[N+]1(C)CCCC1.N#CN=C=[N-] [1-butyl-1-methylpyrrolidinium dicyanamide] + O
Details	mass density, 288.15 K [kg/m3]	mass density, 298.15 K [kg/m3]	mass density, 308.15 K [kg/m3]	refractive index, 288.15 K	refractive index, 298.15 K	refractive index, 308.15 K	speed of sound, 288.15 K [m/s]	speed of sound, 298.15 K [m/s]	speed of sound, 308.15 K [m/s]
[1], x2 = 0	–	–	–	1.49968	1.49681	1.49392	–	–	–
[1], x2 = 0.096	–	–	–	1.49811	1.49519	1.49222	–	–	–
[1], x2 = 0.1277	–	–	–	1.49752	1.49459	1.49162	–	–	–
[1], x2 = 0.2116	–	–	–	1.4957	1.49278	1.48982	–	–	–
[1], x2 = 0.3077	–	–	–	1.49322	1.49032	1.4871	–	–	–
[1], x2 = 0.3942	–	–	–	1.49044	1.48751	1.48432	–	–	–
[1], x2 = 0.4952	–	–	–	1.48621	1.48329	1.47987	–	–	–
[1], x2 = 0.5023	–	–	–	1.4858	1.48284	1.47973	–	–	–
[1], x2 = 0.6047	–	–	–	1.4797	1.47674	1.47345	–	–	–
[1], x2 = 0.6137	–	–	–	1.47901	1.4761	1.47289	–	–	–
[1], x2 = 0.7061	–	–	–	1.47041	1.46748	1.46424	–	–	–
[1], x2 = 0.7177	–	–	–	1.46905	1.46612	1.46281	–	–	–
[1], x2 = 0.7571	–	–	–	1.46368	1.46078	1.45746	–	–	–
[1], x2 = 0.8208	–	–	–	1.45158	1.4487	1.44577	–	–	–
[1], x2 = 0.8468	–	–	–	1.44481	1.44172	1.43884	–	–	–
[1], x2 = 0.9034	–	–	–	1.42419	1.42145	1.41909	–	–	–
[1], x2 = 0.904	–	–	–	1.42386	1.42118	1.41891	–	–	–
[1], x2 = 0.9492	–	–	–	1.39597	1.39362	1.39175	–	–	–
[1], x2 = 0.9507	–	–	–	1.39472	1.39249	1.39055	–	–	–
[1], x2 = 0.9517	–	–	–	1.3939	1.39161	1.3897	–	–	–
[2], x2 = 0	1019.17	1013.53	1007.93	–	–	–	1836.9	1811.1	1781.9
[2], x2 = 0.096	1018.92	1013.25	1007.63	–	–	–	1836.1	1810.6	1782.4
[2], x2 = 0.1277	1018.84	1013.16	1007.52	–	–	–	1835.8	1810.4	1783.1
[2], x2 = 0.2116	1018.6	1012.89	1007.23	–	–	–	1835.3	1810.1	1783.8
[2], x2 = 0.3077	1018.31	1012.56	1006.85	–	–	–	1835.6	1810	1784.2
[2], x2 = 0.3942	1018.08	1012.27	1006.5	–	–	–	1834.9	1810	1785.7
[2], x2 = 0.4952	1017.78	1011.89	1006.03	–	–	–	1835.1	1810.8	1786.7
[2], x2 = 0.5023	1017.76	1011.86	1005.99	–	–	–	1835.2	1810.9	1786.7
[2], x2 = 0.6047	1017.45	1011.42	1005.42	–	–	–	1835.9	1811.8	1788
[2], x2 = 0.6137	1017.41	1011.37	1005.35	–	–	–	1835.7	1811.8	1788
[2], x2 = 0.7061	1016.91	1010.72	1004.54	–	–	–	1832.9	1809.6	1786.1
[2], x2 = 0.7177	1016.81	1010.61	1004.4	–	–	–	1832	1808.9	1785.6
[2], x2 = 0.7571	1016.39	1010.13	1003.86	–	–	–	1827.3	1804.9	1782.1
[2], x2 = 0.8208	1015.22	1008.91	1002.57	–	–	–	1810.9	1790.5	1769.4
[2], x2 = 0.8468	1014.46	1008.19	1001.84	–	–	–	1798.5	1779.7	1756.5
[2], x2 = 0.9034	1011.96	1005.98	999.84	–	–	–	1750.6	1738.3	1724.2
[2], x2 = 0.904	1011.92	1005.93	999.81	–	–	–	1749.8	1737.2	1723.6
[2], x2 = 0.9492	1008.27	1003.12	997.62	–	–	–	1671.5	1670.7	1666.7
[2], x2 = 0.9507	1008.1	1002.99	997.53	–	–	–	1667.9	1667.7	1664.3
[2], x2 = 0.9517	1007.98	1002.91	997.47	–	–	–	1665.4	1665.5	1662.5

CCCC[n+]1cccc(C)c1.O=S(=O)([O-])C(F)(F)F [1-butyl-3-methylpyridinium trifluoromethanesulfonate] + O
Details	mass density, 288.15 K [kg/m3]	mass density, 298.15 K [kg/m3]	mass density, 308.15 K [kg/m3]	refractive index, 288.15 K	refractive index, 298.15 K	refractive index, 308.15 K	speed of sound, 288.15 K [m/s]	speed of sound, 298.15 K [m/s]	speed of sound, 308.15 K [m/s]
[1], x2 = 0	–	–	–	1.46446	1.46155	1.45868	–	–	–
[1], x2 = 0.0794	–	–	–	1.46358	1.46073	1.45784	–	–	–
[1], x2 = 0.1517	–	–	–	1.46266	1.45982	1.45694	–	–	–
[1], x2 = 0.2502	–	–	–	1.46111	1.45822	1.45535	–	–	–
[1], x2 = 0.3515	–	–	–	1.4591	1.45623	1.45331	–	–	–
[1], x2 = 0.4528	–	–	–	1.45651	1.45363	1.45069	–	–	–
[1], x2 = 0.5628	–	–	–	1.45257	1.44968	1.44673	–	–	–
[1], x2 = 0.6561	–	–	–	1.4477	1.44482	1.44183	–	–	–
[1], x2 = 0.7494	–	–	–	1.44008	1.43724	1.43429	–	–	–
[1], x2 = 0.8383	–	–	–	1.42747	1.42474	1.42192	–	–	–
[1], x2 = 0.9201	–	–	–	1.40357	1.40118	1.39863	–	–	–
[1], x2 = 0.9603	–	–	–	1.37998	1.37782	1.3757	–	–	–
[2], x2 = 0	1287.07	1279.41	1271.8	–	–	–	1436.1	1412.3	1389.6
[2], x2 = 0.0794	1285.23	1277.62	1269.98	–	–	–	1439.2	1415.5	1392.5
[2], x2 = 0.1517	1283.28	1275.63	1267.96	–	–	–	1442.3	1418.7	1395.8
[2], x2 = 0.2502	1279.99	1272.28	1264.58	–	–	–	1447.7	1424.3	1401.5
[2], x2 = 0.3515	1275.76	1268	1260.24	–	–	–	1454.3	1431.2	1408.5
[2], x2 = 0.4528	1270.21	1262.4	1254.58	–	–	–	1463	1440	1417.4
[2], x2 = 0.5628	1261.9	1254.01	1246.08	–	–	–	1475.6	1452.9	1430.3
[2], x2 = 0.6561	1251.55	1243.59	1235.57	–	–	–	1489.9	1467.6	1445.3
[2], x2 = 0.7494	1235.48	1227.52	1219.46	–	–	–	1508.6	1487.4	1465.8
[2], x2 = 0.8383	1208.29	1200.56	1192.69	–	–	–	1530.4	1512.5	1493.4
[2], x2 = 0.9201	1155.76	1149.07	1142.04	–	–	–	1548.9	1540.1	1528.6
[2], x2 = 0.9603	1103.57	1098.18	1092.3	–	–	–	1553.2	1553.5	1550.4

COS(=O)(=O)[O-].C[n+]1ccccc1 [1-methylpyridinium methylsulfate] + O
Details	mass density, 288.15 K [kg/m3]	mass density, 298.15 K [kg/m3]	mass density, 308.15 K [kg/m3]	refractive index, 288.15 K	refractive index, 298.15 K	refractive index, 308.15 K	speed of sound, 288.15 K [m/s]	speed of sound, 298.15 K [m/s]	speed of sound, 308.15 K [m/s]
[1], x2 = 0	–	–	–	1.51603	1.5134	1.51077	–	–	–
[1], x2 = 0.0574	–	–	–	1.51462	1.51199	1.50937	–	–	–
[1], x2 = 0.073	–	–	–	1.51423	1.51159	1.50895	–	–	–
[1], x2 = 0.1111	–	–	–	1.51315	1.51052	1.50794	–	–	–
[1], x2 = 0.1927	–	–	–	1.51059	1.50803	1.50539	–	–	–
[1], x2 = 0.2941	–	–	–	1.50679	1.50426	1.5017	–	–	–
[1], x2 = 0.4005	–	–	–	1.50177	1.49921	1.49665	–	–	–
[1], x2 = 0.4996	–	–	–	1.49567	1.49314	1.49057	–	–	–
[1], x2 = 0.6077	–	–	–	1.48632	1.48384	1.48134	–	–	–
[1], x2 = 0.7064	–	–	–	1.47388	1.47142	1.46886	–	–	–
[1], x2 = 0.8058	–	–	–	1.45378	1.45141	1.44897	–	–	–
[1], x2 = 0.901	–	–	–	1.41884	1.4167	1.41447	–	–	–
[1], x2 = 0.9497	–	–	–	1.38778	1.38593	1.38397	–	–	–
[1], x2 = 0.9645	–	–	–	1.37506	1.37336	1.37158	–	–	–
[2], x2 = 0	1352.86	1346.12	1339.37	–	–	–	1901.1	1875.8	1852.4
[2], x2 = 0.0574	1350.36	1343.61	1336.86	–	–	–	1900.5	1876	1852.3
[2], x2 = 0.073	1349.61	1342.85	1336.11	–	–	–	1901.4	1876.4	1852.7
[2], x2 = 0.1111	1347.74	1340.98	1334.23	–	–	–	1901.9	1877.4	1853.7
[2], x2 = 0.1927	1343.32	1336.56	1329.82	–	–	–	1903.2	1879.2	1855.8
[2], x2 = 0.2941	1336.61	1329.85	1323.12	–	–	–	1906.5	1882.6	1859.2
[2], x2 = 0.4005	1327.54	1320.8	1314.09	–	–	–	1909.5	1886.2	1863.4
[2], x2 = 0.4996	1316.5	1309.79	1303.09	–	–	–	1912.2	1889.5	1867
[2], x2 = 0.6077	1299.41	1292.74	1286.07	–	–	–	1913.2	1891	1868.9
[2], x2 = 0.7064	1276.09	1269.51	1262.91	–	–	–	1906.8	1885.4	1863.4
[2], x2 = 0.8058	1237.51	1231.17	1224.76	–	–	–	1878	1859.2	1837.7
[2], x2 = 0.901	1168.89	1163.31	1157.51	–	–	–	1782.3	1772.7	1760.4
[2], x2 = 0.9497	1107.24	1102.67	1097.68	–	–	–	1670.4	1673.5	1673.4
[2], x2 = 0.9645	1081.91	1077.85	1073.27	–	–	–	1622.5	1633.3	1637.2
